Measurements reported in ChEMBL document CHEMBL5352419, “Design, synthesis, and biological evaluation of tetrahydroquinoline amphiphiles as membrane-targeting antimicrobials against pathogenic bacteria and fungi” (Eur J Med Chem, 2022).
Converted amounts (≈) assume the structure as drawn. The source made the active and inactive calls. No cut-off for these calls is given here.

Tests used:
Candida albicans [1] = assay: Antimicrobial activity against Candida albicans CMCC98001 assessed as fungal growth inhibition incubated for 48 hrs by Sabouraud Dextrose broth based dilution assay; type: functional
Klebsiella pneumoniae [2] = assay: Antimicrobial activity against Klebsiella pneumoniae ATCC10031 assessed as bacterial growth inhibition incubated for 24 hrs by Muller Hinton broth based dilution assay; type: functional
Staphylococcus aureus [3] = assay: Antimicrobial activity against methicillin-resistant Staphylococcus aureus NCTC10442 assessed as bacterial growth inhibition incubated for 24 hrs by Muller Hinton broth based dilution assay; type: functional
Acinetobacter baumannii [4] = assay: Antimicrobial activity against Acinetobacter baumannii R2889 assessed as bacterial growth inhibition incubated for 24 hrs by Muller Hinton broth based dilution assay; type: functional
[5] = Hemolytic activity in rabbit RBC incubated for 1 hr by absorbance based microplate reader assay; type: toxicity, cell-based, Oryctolagus cuniculus, Erythrocyte; settings: rabbit red blood cells (erythrocytes)
Candida albicans [6] = assay: Antimicrobial activity against Candida albicans ATCC10231 assessed as fungal growth inhibition incubated for 48 hrs by Sabouraud Dextrose broth based dilution assay; type: functional
Pseudomonas aeruginosa = assay: Antimicrobial activity against Pseudomonas aeruginosa ATCC9027 assessed as bacterial growth inhibition incubated for 24 hrs by Muller Hinton broth based dilution assay; type: functional
Acinetobacter baumannii [7] = assay: Antimicrobial activity against Acinetobacter baumannii ATCC17978 assessed as bacterial growth inhibition incubated for 24 hrs by Muller Hinton broth based dilution assay; type: functional
Staphylococcus aureus [8] = assay: Antimicrobial activity against methicillin-resistant Staphylococcus aureus N315 assessed as bacterial growth inhibition incubated for 24 hrs by Muller Hinton broth based dilution assay; type: functional
Staphylococcus aureus [9] = assay: Antimicrobial activity against Staphylococcus aureus ATCC29213 assessed as bacterial growth inhibition incubated for 24 hrs by Muller Hinton broth based dilution assay; type: functional
Klebsiella pneumoniae [10] = assay: Antimicrobial activity against Klebsiella pneumoniae ATCC14581 assessed as bacterial growth inhibition incubated for 24 hrs by Muller Hinton broth based dilution assay; type: functional
Escherichia coli [11] = assay: Antimicrobial activity against Escherichia coli ATCC25922 assessed as bacterial growth inhibition incubated for 24 hrs by Muller Hinton broth based dilution assay; type: functional
Escherichia coli [12] = assay: Antibiofilm activity against Escherichia coli ATCC25922 assessed as inhibition of biofilm formation at 3.125 ug/mL incubated for 24 hrs by crystal violet staining based analysis relative to control; type: functional; settings: dose 3.125 µg/ml
Escherichia coli [13] = assay: Antibiofilm activity against Escherichia coli ATCC25922 assessed as inhibition of biofilm formation at 0.78 ug/mL incubated for 24 hrs by crystal violet staining based analysis relative to control; type: functional; settings: dose 0.78 µg/ml
Escherichia coli [14] = assay: Antibiofilm activity against Escherichia coli ATCC25922 assessed as inhibition of biofilm formation at 0.39 ug/mL incubated for 24 hrs by crystal violet staining based analysis relative to control; type: functional; settings: dose 0.39 µg/ml
Escherichia coli [15] = assay: Disruption of preformed biofilm in Escherichia coli ATCC25922 assessed as residual preformed biofilm at 0.78 ug/mL incubated for 24 hrs by crystal violet staining based analysis relative to control; type: functional; settings: dose 0.78 µg/ml
Escherichia coli [16] = assay: Disruption of preformed biofilm in Escherichia coli ATCC25922 assessed as residual preformed biofilm at 25 ug/mL incubated for 24 hrs by crystal violet staining based analysis relative to control; type: functional; settings: dose 25.0 µg/ml
Escherichia coli [17] = assay: Disruption of preformed biofilm in Escherichia coli ATCC25922 assessed as residual preformed biofilm at 3.125 ug/mL incubated for 24 hrs by crystal violet staining based analysis relative to control; type: functional; settings: dose 3.125 µg/ml
Escherichia coli [18] = assay: Disruption of preformed biofilm in Escherichia coli ATCC25922 assessed as residual preformed biofilm at 12.5 ug/mL incubated for 24 hrs by crystal violet staining based analysis relative to control; type: functional; settings: dose 12.5 µg/ml
Escherichia coli [19] = assay: Antibiofilm activity against Escherichia coli ATCC25922 assessed as inhibition of biofilm formation at 6.25 ug/mL incubated for 24 hrs by crystal violet staining based analysis relative to control; type: functional; settings: dose 6.25 µg/ml
Escherichia coli [20] = assay: Disruption of preformed biofilm in Escherichia coli ATCC25922 assessed as residual preformed biofilm at 6.25 ug/mL incubated for 24 hrs by crystal violet staining based analysis relative to control; type: functional; settings: dose 6.25 µg/ml
Escherichia coli [21] = assay: Induction of drug resistance in Escherichia coli ATCC25922 assessed as fold increase in MIC at sub-inhibitory concentration incubated for 21 to 22 passages; type: functional
Cell membrane = assay: Disruption of outer membrane integrity in Acinetobacter baumannii ATCC17978 at 25 ug/mL; settings: dose 25.0 µg/ml

| Compound | MIC (Candida albicans [1]) | MIC (Klebsiella pneumoniae [2]) | MIC (Staphylococcus aureus [3]) | MIC (Acinetobacter baumannii [4]) | HC50 at 1 h [5] | MIC (Candida albicans [6]) | MIC (Pseudomonas aeruginosa) | MIC (Acinetobacter baumannii [7]) | MIC (Staphylococcus aureus [8]) | MIC (Staphylococcus aureus [9]) | MIC (Klebsiella pneumoniae [10]) | MIC (Escherichia coli [11]) | also measured |
| --- | --- | --- | --- | --- | --- | --- | --- | --- | --- | --- | --- | --- | --- |
| CCCCCCCCCN1CCCc2cc(OCC(=O)N[C@@H](CCCNC(=N)N)C(=O)N[C@@H](CCCNC(=N)N)C(=O)N[C@@H](CCCNC(=N)N)C(=O)OC)ccc21 | 50 µg/mL (≈ 61.3 µM) | 12.5 µg/mL (≈ 15.3 µM) | 1.56 µg/mL (≈ 1.91 µM) | 50 µg/mL (≈ 61.3 µM) | > 200 µg/mL | > 50 µg/mL | 25 µg/mL (≈ 30.6 µM) | 12.5 µg/mL (≈ 15.3 µM) | 1.56 µg/mL (≈ 1.91 µM) | 3.12 µg/mL (≈ 3.83 µM) | 12.5 µg/mL (≈ 15.3 µM) | 12.5 µg/mL (≈ 15.3 µM) | – |
| POLYMYXIN B | – | – | – | – | – | – | – | – | – | – | – | – | inhibition (Escherichia coli [12]): 99.8%; inhibition (Escherichia coli [13]): 43.3%; inhibition (Escherichia coli [14]): 22.9%; Activity (Escherichia coli [15]): 87.5%; Activity (Escherichia coli [16]): 6.65%; Activity (Escherichia coli [17]): 19.2%; Activity (Escherichia coli [18]): 8.48%; inhibition (Escherichia coli [19]): 100%; Activity (Escherichia coli [20]): 7.57% |
| CC(C)=CCC/C(C)=C/CN1CCCc2cc(OCCCCNC(=N)N)ccc21 | 1.56 µg/mL (≈ 3.91 µM) | 1.56 µg/mL (≈ 3.91 µM) | 0.78 µg/mL (≈ 1.96 µM) | 3.12 µg/mL (≈ 7.84 µM) | 154 µg/mL | 3.12 µg/mL (≈ 7.84 µM) | 6.25 µg/mL (≈ 15.7 µM) | 3.12 µg/mL (≈ 7.84 µM) | 0.78 µg/mL (≈ 1.96 µM) | 0.78 µg/mL (≈ 1.96 µM) | 1.56 µg/mL (≈ 3.91 µM) | 3.12 µg/mL (≈ 7.84 µM) | – |
| CCCCCCCCCN1CCCc2cc(OCC(=O)N[C@@H](CCCNC(=N)N)C(N)=O)ccc21 | 3.12 µg/mL (≈ 6.39 µM) | 3.12 µg/mL (≈ 6.39 µM) | 1.56 µg/mL (≈ 3.19 µM) | 12.5 µg/mL (≈ 25.6 µM) | > 200 µg/mL | 3.12 µg/mL (≈ 6.39 µM) | 6.25 µg/mL (≈ 12.8 µM) | 12.5 µg/mL (≈ 25.6 µM) | 1.56 µg/mL (≈ 3.19 µM) | 1.56 µg/mL (≈ 3.19 µM) | 3.12 µg/mL (≈ 6.39 µM) | 3.12 µg/mL (≈ 6.39 µM) | – |
| CCCCCCCN1CCCc2cc(OCCCCNC(=N)N)ccc21 | 3.12 µg/mL (≈ 8.67 µM) | 1.56 µg/mL (≈ 4.33 µM) | 0.78 µg/mL (≈ 2.16 µM) | 6.25 µg/mL (≈ 17.3 µM) | 169 µg/mL | 6.25 µg/mL (≈ 17.3 µM) | 6.25 µg/mL (≈ 17.3 µM) | 6.25 µg/mL (≈ 17.3 µM) | 0.78 µg/mL (≈ 2.16 µM) | 1.56 µg/mL (≈ 4.33 µM) | 1.56 µg/mL (≈ 4.33 µM) | 3.12 µg/mL (≈ 8.67 µM) | – |
| CC(C)=CCN1CCCc2cc(OCCCCCCNC(=N)N)ccc21 | 12.5 µg/mL (≈ 34.9 µM) | 6.25 µg/mL (≈ 17.4 µM) | 0.78 µg/mL (≈ 2.18 µM) | 12.5 µg/mL (≈ 34.9 µM) | 184 µg/mL | 12.5 µg/mL (≈ 34.9 µM) | 25 µg/mL (≈ 69.7 µM) | 25 µg/mL (≈ 69.7 µM) | 0.78 µg/mL (≈ 2.18 µM) | 1.56 µg/mL (≈ 4.35 µM) | 6.25 µg/mL (≈ 17.4 µM) | 6.25 µg/mL (≈ 17.4 µM) | – |
| CCCCCCCN1CCCc2cc(OCC(=O)N[C@@H](CCCNC(=N)N)C(=O)OC)ccc21 | 12.5 µg/mL (≈ 26.3 µM) | 6.25 µg/mL (≈ 13.1 µM) | 1.56 µg/mL (≈ 3.28 µM) | 12.5 µg/mL (≈ 26.3 µM) | > 200 µg/mL | 25 µg/mL (≈ 52.6 µM) | 12.5 µg/mL (≈ 26.3 µM) | 12.5 µg/mL (≈ 26.3 µM) | 1.56 µg/mL (≈ 3.28 µM) | 3.12 µg/mL (≈ 6.57 µM) | 6.25 µg/mL (≈ 13.1 µM) | 12.5 µg/mL (≈ 26.3 µM) | – |
| CC1(C)S[C@@H]2[C@H](NC(=O)[C@H](N)c3ccc(O)cc3)C(=O)N2[C@H]1C(=O)O | – | – | – | – | – | – | – | – | – | – | – | – | fold change (FC) (Escherichia coli [21]): 16 |
| CCCCCCCN1CCCc2cc(OCCCCCCCCNC(=N)N)ccc21 | 0.39 µg/mL (≈ 0.936 µM) | 12.5 µg/mL (≈ 30 µM) | 0.78 µg/mL (≈ 1.87 µM) | 12.5 µg/mL (≈ 30 µM) | > 200 µg/mL | 0.78 µg/mL (≈ 1.87 µM) | > 50 µg/mL | 25 µg/mL (≈ 60 µM) | 0.78 µg/mL (≈ 1.87 µM) | 1.56 µg/mL (≈ 3.74 µM) | 12.5 µg/mL (≈ 30 µM) | 3.12 µg/mL (≈ 7.5 µM) | Activity (Cell membrane): inactive |
| O=C(O)c1cn(C2CC2)c2cc(N3CCNCC3)c(F)cc2c1=O [CIPROFLOXACIN] | – | 0.195 µg/mL (≈ 0.589 µM) | 0.39 µg/mL (≈ 1.18 µM) | 0.78 µg/mL (≈ 2.35 µM) | – | – | 0.195 µg/mL (≈ 0.589 µM) | 0.39 µg/mL (≈ 1.18 µM) | 0.39 µg/mL (≈ 1.18 µM) | 0.39 µg/mL (≈ 1.18 µM) | 0.195 µg/mL (≈ 0.589 µM) | 0.049 µg/mL (≈ 0.148 µM) | – |
